# Source: patent US5565486A, “Sesquiterpenes, their preparation and their use as inhibitors acting on the gaba-benzodiazepine receptor” (Xenova Limited, priority 1992, dated 1996)
# Columns and labels:
# benzodiazepine receptor = test: Benzodiazepine-receptor binding assay ([3H]-flunitrazepam displacement, ox cerebral cortex synaptosomal preparation); conditions: for IC50: [3H]-flunitrazepam 1 nM, pH 7.4
# Procedure: The present compounds have shown activity in a benzodiazepine-receptor binding assay which uses a tritiated ligand specific for the receptor present on the purified GABA-Bz-Cl^- ionophore receptor complex. The details of the assay are set out in Example 5 which follows.
# The receptor extract was a crude synaptosomal preparation isolated from ox cerebral cortex by the method of Lang et al (FEBS Lett., 104 149-153, 1979). Receptor binding was determined using a modification described by O'Beirne and Williams (Eur. J. Biochem, 175 413-421, 1988) of the method of Braestrup and Squires (PNAS 74 3805-3809, 1977). The receptor preparation was incubated in 50 mM Tris/Cl, pH 7.4, with compound A and [^3 H]-flunitrazepam (agonist) at a final concentration of 1 nM. Bound radioligand was harvested on to glass fibre filters and measured by liquid scintillation counting. Non-specific binding was determined by displacement of ligand with Diazepam (1 μM).
# Binding data were fitted to one or two site models by weighted non-linear regression analysis using the computer programs `LIGAND` (Munson and Rodbard: Analytic Biochem 107 220-239, 1980) and `EBDA` (McPherson-Computer Prog. in Biomed. 7 107-114, 1983).
# The method described above was repeated using each of compounds B and C described in Examples 3 and 4 respectively, and also using compound D, which is the sodium salt of compound A.
# IC50 values were also determined for compounds A', E and F described in Examples 5 to 7 respectively.
# [1] = Solubility in organic solvents; format: physicochemical; conditions: solvents in which soluble
compound,measurement,setting,value
C/C1=C\CC(C)(C)/C=C/C[C@@]2(C)OC3=C(O)C(=O)[C@H]4CO[C@H]([C@@H]34)[C@@H]2CC1 [Compound A],IC50,benzodiazepine receptor,40 nM
same,% Inhibition,benzodiazepine receptor; concentration 3 nM,11%
same,% Inhibition,benzodiazepine receptor; concentration 9 nM,35%
same,% Inhibition,benzodiazepine receptor; concentration 28 nM,44%
same,% Inhibition,benzodiazepine receptor; concentration 93 nM,65%
same,% Inhibition,benzodiazepine receptor; concentration 280 nM,80%
same,% Inhibition,benzodiazepine receptor; concentration 930 nM,92%
same,% Inhibition,benzodiazepine receptor; concentration 3 μM,93%
same,% Inhibition,benzodiazepine receptor; concentration 9 μM,99%
same,% Inhibition,benzodiazepine receptor; concentration 28 μM,106%
same,% Inhibition,benzodiazepine receptor; concentration 93 μM,107%
same,Solubility,[1],"Methanol, acetone, ethyl acetate"
C/C1=C\CC(C)(C)/C=C/C[C@@]2(C)Oc3c4c(c(O)c(O)c(=O)c3O)CO[C@H]4[C@@H]2CC1 [Compound B],IC50,benzodiazepine receptor,5000 nM
same,% Inhibition,benzodiazepine receptor; concentration 18 nM,21%
same,% Inhibition,benzodiazepine receptor; concentration 53 nM,21%
same,% Inhibition,benzodiazepine receptor; concentration 177 nM,36%
same,% Inhibition,benzodiazepine receptor; concentration 530 nM,42%
same,% Inhibition,benzodiazepine receptor; concentration 2 μM,53%
same,% Inhibition,benzodiazepine receptor; concentration 5 μM,69%
same,% Inhibition,benzodiazepine receptor; concentration 18 μM,82%
same,% Inhibition,benzodiazepine receptor; concentration 53 μM,92%
same,% Inhibition,benzodiazepine receptor; concentration 177 μM,78%
same,Solubility,[1],"Methanol, ethyl acetate, chloroform, acetone"
C/C1=C\CC(C)(C)/C=C/C[C@@]2(C)Oc3c4c(cc(O)c(=O)c3O)CO[C@H]4[C@@H]2CC1 [Compound C],IC50,benzodiazepine receptor,20000 nM
same,% Inhibition,benzodiazepine receptor; concentration 80 nM,9%
same,% Inhibition,benzodiazepine receptor; concentration 240 nM,-3%
same,% Inhibition,benzodiazepine receptor; concentration 800 nM,9%
same,% Inhibition,benzodiazepine receptor; concentration 2 μM,12%
same,% Inhibition,benzodiazepine receptor; concentration 8 μM,35%
same,% Inhibition,benzodiazepine receptor; concentration 24 μM,54%
same,% Inhibition,benzodiazepine receptor; concentration 80 μM,77%
same,% Inhibition,benzodiazepine receptor; concentration 242 μM,88%
same,Solubility,[1],"Methanol, acetone, ethyl acetate"
C/C1=C\CC(C)(C)/C=C/C[C@@]2(C)OC3=C(O)C(=O)[C@H]4CO[C@H]([C@@H]34)[C@@H]2CC1 [Compound D],IC50,benzodiazepine receptor,10 nM
same,% Inhibition,benzodiazepine receptor; concentration 5 nM,45%
same,% Inhibition,benzodiazepine receptor; concentration 10 nM,45%
same,% Inhibition,benzodiazepine receptor; concentration 50 nM,70%
same,% Inhibition,benzodiazepine receptor; concentration 100 nM,65%
same,% Inhibition,benzodiazepine receptor; concentration 500 nM,81%
same,% Inhibition,benzodiazepine receptor; concentration 1 μM,86%
same,% Inhibition,benzodiazepine receptor; concentration 5 μM,98%
same,% Inhibition,benzodiazepine receptor; concentration 10 μM,100%
same,% Inhibition,benzodiazepine receptor; concentration 50 μM,103%
same,% Inhibition,benzodiazepine receptor; concentration 100 μM,92%
C/C1=C\CC(C)(C)/C=C/C[C@@]2(C)Oc3c(O)c(O)cc4c3[C@@H](OC4)[C@@H]2CC1 [Compound E],IC50,benzodiazepine receptor,500 nM
same,% Inhibition,benzodiazepine receptor; concentration 4.8 × 10^-5 M,101%
same,% Inhibition,benzodiazepine receptor; concentration 4.8 × 10^-6 M,88%
same,% Inhibition,benzodiazepine receptor; concentration 4.8 × 10^-7 M,52%
same,% Inhibition,benzodiazepine receptor; concentration 4.8 × 10^-8 M,37%
same,% Inhibition,benzodiazepine receptor; concentration 4.8 × 10^-9 M,22%
same,% Inhibition,benzodiazepine receptor; concentration 9.5 × 10^-5 M,104%
same,% Inhibition,benzodiazepine receptor; concentration 9.5 × 10^-6 M,93%
same,% Inhibition,benzodiazepine receptor; concentration 9.5 × 10^-7 M,65%
same,% Inhibition,benzodiazepine receptor; concentration 9.5 × 10^-8 M,42%
same,% Inhibition,benzodiazepine receptor; concentration 9.5 × 10^-9 M,27%
same,Solubility,[1],"methanol, ethyl acetate"
C/C1=C\CC(C)(C)/C=C/C[C@@]2(C)OC3=C4C(=CC(=O)C3=O)CO[C@H]4[C@@H]2CC1 [Compound F],IC50,benzodiazepine receptor,3000 nM
same,% Inhibition,benzodiazepine receptor; concentration 2.7 × 10^-4 M,94%
same,% Inhibition,benzodiazepine receptor; concentration 2.7 × 10^-5 M,77%
same,% Inhibition,benzodiazepine receptor; concentration 2.7 × 10^-6 M,48%
same,% Inhibition,benzodiazepine receptor; concentration 2.7 × 10^-7 M,33%
same,% Inhibition,benzodiazepine receptor; concentration 2.7 × 10^-8 M,24%
same,% Inhibition,benzodiazepine receptor; concentration 9.0 × 10^-5 M,89%
same,% Inhibition,benzodiazepine receptor; concentration 9.0 × 10^-6 M,65%
same,% Inhibition,benzodiazepine receptor; concentration 9.0 × 10^-7 M,41%
same,% Inhibition,benzodiazepine receptor; concentration 9.0 × 10^-8 M,27%
same,% Inhibition,benzodiazepine receptor; concentration 9.0 × 10^-9 M,15%
same,Solubility,[1],methanol
